Results on one compound are retold here after ChEMBL document CHEMBL3045984, “Resistance to HPPD-inhibiting herbicides in a population of waterhemp (Amaranthus tuberculatus) from Illinois, United States” (2011).

Assay [1] deals with Amaranthus tuberculatus. As to the kind of experiment: Resistance ratio of GR50 for Amaranthus tuberculatus biotype MCR to GR50 for Amaranthus tuberculatus biotype ACR. It counts as functional.
Assay [2] has as its system Amaranthus tuberculatus. As to the kind of experiment: Resistance ratio of GR50 for Amaranthus tuberculatus biotype MCR to GR50 for Amaranthus tuberculatus biotype WCS. Format: functional.

SMILES strings stand for the structures.

With `CS(=O)(=O)c1ccc(C(=O)C2C(=O)CCCC2=O)c([N+](=O)[O-])c1` [MESOTRIONE], the values for the Ratio with Amaranthus tuberculatus [1] and in the assay on Amaranthus tuberculatus [2] were 10 and 35, respectively.
